Assay results as given in patent US11110082B2, “Tyrosine kinase inhibitors” (Rigel Pharmaceuticals, Inc., priority 2016, dated 2021).

Target: T1, MerTK (Homo sapiens, UniProt Q12866)
T1 construct: Seed HUVECs (10K cells/well) in EBM-2 complete media; host or cells: HUVEC (primary human umbilical vein endothelial cells)
T1 sequence (Q12866 21-999): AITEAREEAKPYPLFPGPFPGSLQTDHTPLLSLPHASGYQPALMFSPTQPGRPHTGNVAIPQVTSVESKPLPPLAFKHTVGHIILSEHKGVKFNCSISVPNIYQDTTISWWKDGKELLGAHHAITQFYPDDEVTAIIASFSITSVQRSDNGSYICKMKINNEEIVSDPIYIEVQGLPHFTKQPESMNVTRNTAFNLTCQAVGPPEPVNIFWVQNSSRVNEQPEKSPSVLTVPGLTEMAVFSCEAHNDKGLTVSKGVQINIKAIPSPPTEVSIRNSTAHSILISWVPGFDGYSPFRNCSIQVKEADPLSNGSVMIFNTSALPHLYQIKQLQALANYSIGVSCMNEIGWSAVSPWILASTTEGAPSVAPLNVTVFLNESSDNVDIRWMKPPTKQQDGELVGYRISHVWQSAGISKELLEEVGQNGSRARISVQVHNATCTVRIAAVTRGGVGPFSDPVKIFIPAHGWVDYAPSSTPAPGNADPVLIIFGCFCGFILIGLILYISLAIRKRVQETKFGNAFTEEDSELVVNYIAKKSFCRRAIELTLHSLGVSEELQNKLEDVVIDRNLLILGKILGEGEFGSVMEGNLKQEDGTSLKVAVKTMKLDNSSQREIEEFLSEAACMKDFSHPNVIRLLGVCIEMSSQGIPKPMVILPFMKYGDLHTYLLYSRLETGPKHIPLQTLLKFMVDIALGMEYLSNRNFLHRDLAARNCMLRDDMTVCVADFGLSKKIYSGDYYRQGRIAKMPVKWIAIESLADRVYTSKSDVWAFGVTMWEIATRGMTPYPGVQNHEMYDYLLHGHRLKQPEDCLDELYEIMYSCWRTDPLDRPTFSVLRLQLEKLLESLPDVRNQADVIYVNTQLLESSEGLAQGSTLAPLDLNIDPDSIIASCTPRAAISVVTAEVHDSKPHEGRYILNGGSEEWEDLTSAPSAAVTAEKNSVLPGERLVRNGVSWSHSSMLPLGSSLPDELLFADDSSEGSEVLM
Experiment: PAKT HTRF-HUVEC assay (pAkt Ser473 HTRF after anti-human MerTK-XL stimulation)
Format: cell-based
Details: HUVEC cells, 1 hour compound, stimulated with anti-human MerTK-XL 1 ug/mL for 10 minutes, read-out: inhibition of MerTK
In short: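 Akt Ser473 phosphorylation measured by HTRF in lysates of serum-starved HUVECs. Cells received compound for 1 h at 37° C before a 10-min challenge with antibody-cross-linked anti-MerTK (1 ug/mL final); EC50 derived by curve fit.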

SMILES	EC50 [nM]
N[C@H]1CC[C@H](n2c(=O)c3cc(Cl)ccc3c3cnc(NCC4CC4)nc32)CC1 [Compound 205]	293
O=c1c2cc(N3CCN(CC(F)F)CC3)ccc2c2cnc(NCC3CC3)nc2n1[C@H]1CC[C@H](O)CC1 [Compound 169]	354
O=c1c2ccccc2c2cnc(NCCC3CC3)nc2n1[C@H]1CC[C@H](O)CC1 [Compound 120, trans-3-((2-Cyclopropylethyl)amino)-5-(4-hydroxycyclohexyl)pyrimido [4,5-c]isoquinolin-6(5H)-one]	352
CN1CCN(Cc2ccc3c(c2)c(=O)n([C@H]2CC[C@H](C(N)=O)CC2)c2nc(NCC4CC4)ncc32)CC1 [Compound 134, trans-4-(3-((Cyclopropylmethyl)amino)-8-((4-methylpiperazin-1-yl)methyl)-6-oxopyrimido[4,5-c]isoquinolin-5(6H)-yl)cyclohexane-1-carboxamide]	347
CCCCNc1ncc2c3ccc(CN4CCN(C)CC4)cc3c(=O)n([C@H]3CC[C@H](C(=O)NCC(F)(F)F)CC3)c2n1 [Compound 139, trans-4-(3-(Butylamino)-8-((4-methylpiperazin-1-yl)methyl)-6-oxopyrimido[4,5-c]isoquinolin-5(6H)-yl)-N-(2,2,2-trifluoroethyl)cyclohexane-1-carboxamide]	134
CCCCNc1ncc2c3ccc(N4CCN(C(C)C)CC4)cc3c(=O)n(C3CCC(=O)CC3)c2n1 [Compound 70, 3-(Butylamino)-8-(4-isopropylpiperazin-1-yl)-5-(4-oxocyclohexyl)pyrimido[4,5-c]isoquinolin-6(5H)-one]	184
O=c1c2cc(CN3CC[N+]4([O-])CCC3CC4)ccc2c2cnc(NCC3CC3)nc2n1[C@H]1CC[C@H](O)CC1 [Compound 162]	11900
O=c1c2cc(N3CCN(C4COC4)CC3)ccc2c2cnc(NCC3CC3)nc2n1[C@H]1CC[C@H](O)CC1 [Compound 178]	380
O=c1c2cc(CN3CCN4CCC3CC4)ccc2c2cnc(NCC3CC3)nc2n1[C@H]1CC[C@H](O)CC1 [Compound 58, trans-8-((1,4-Diazabicyclo[3.2.2]nonan-4-yl)methyl)-3-((cyclopropylmethyl)amino)-5-(4-hydroxycyclohexyl)pyrimido [4,5-c]isoquinolin-6(5H)-one]	115
CCCCNc1ncc2c3ccc(CN4CCN(C)CC4)cc3c(=O)n([C@H]3CC[C@H](N(C)C)C3)c2n1 [Compound 236, 3-(butylamino)-5-((1S,3S)-3-(dimethylamino)cyclopentyl)-8-((4-methylpiperazin-1-yl)methyl)pyrimido[4,5-c]isoquinolin-6(5H)-one]	130
O=c1c2cc(CN3CC[S+]([O-])CC3)ccc2c2cnc(NCC3CC3)nc2n1[C@H]1CC[C@H](O)CC1 [Compound 52, trans-3-((cyclopropylmethyl)amino)-5-(4-hydroxycyclohexyl)-8-((1-oxidothiomorpholino)methyl) pyrimido[4,5-c]isoquinolin-6(5H)-one]	401
O=c1c2cc(CN3CCOCC3)ccc2c2cnc(NCC3CC3)nc2n1[C@H]1CC[C@H](O)CC1 [Compound 155]	149

Now from value to molecule:

EC50 [nM]	SMILES
57.7	N#CC1CCN(Cc2ccc3c(c2)c(=O)n([C@H]2CC[C@H](O)CC2)c2nc(NCC4CC4)ncc32)CC1 [Compound 204, trans-1-((3-((Cyclopropylmethyl)amino)-5-(4-hydroxycyclohexyl)-6-oxo-5,6-dihydropyrimido[4,5-c]isoquinolin-8-yl)methyl)piperidine-4-carbonitrile]
113	O=c1c2cc(N3CCN4CCC3CC4)ccc2c2cnc(NCC3CC3)nc2n1C1CCC(O)CC1 (stereo not shown) [Compound 163]
63.6	O=c1c2cc(CN3CCN(c4ccncc4)CC3)ccc2c2cnc(NC3CC(F)(F)C3)nc2n1[C@H]1CC[C@H](O)CC1 [Compound 212, trans-3-((3,3-Difluorocyclobutyl)amino)-5-(4-hydroxycyclohexyl)-8-((4-(pyridin-4-yl)piperazin-1-yl)methyl)pyrimido[4,5-c]isoquinolin-6(5H)-one]
19.6	CN1CCN(Cc2ccc3c(c2)c(=O)n([C@H]2CC[C@H](O)CC2)c2nc(NC4CCC4)ncc32)CC1 [Compound 137, trans-3-(cyclobutylamino)-5-(4-hydroxycyclohexyl)-8-((4-methylpiperazin-1-yl)methyl)pyrimido[4,5-c]isoquinolin-6(5H)-one]
25.7	CC1(O)CCN(Cc2ccc3c(c2)c(=O)n(C2CCC(O)CC2)c2nc(NCC4CC4)ncc32)CC1 (stereo not shown) [Compound 145, 3-((cyclopropylmethyl)amino)-8-((4-hydroxy-4-methylpiperidin-1-yl)methyl)-5-((1s,4s)-4-hydroxycyclohexyl)pyrimido[4,5-c]isoquinolin-6(5H)-one]
97.5	CC(C)N1CCN(c2ccc3c(c2)c(=O)n([C@H]2CC[C@H](O)CC2)c2nc(NCC4CC4)ncc32)CC1 [Compound 109, trans-3-((Cyclopropylmethyl)amino)-5-(4-hydroxycyclohexyl)-8-(4-isopropylpiperazin-1-yl)pyrimido[4,5-c]isoquinolin-6(5H)-one]
13.9	O=c1c2cc(CN3CCC4(CC3)COC4)ccc2c2cnc(NC3CCC3)nc2n1[C@H]1CC[C@H](O)CC1 [Compound 209, trans-8-((2-Oxa-7-azaspiro[3.5]nonan-7-yl)methyl)-3-(cyclobutylamino)-5-(4-hydroxycyclohexyl)pyrimido[4,5-c]isoquinolin-6(5H)-one]
10.9	O=c1c2cc(CN3CCN(c4ccncn4)CC3)ccc2c2cnc(NC3CCC3)nc2n1[C@H]1CC[C@H](O)CC1 [Compound 226, trans-3-(Cyclobutylamino)-5-(4-hydroxycyclohexyl)-8-((4-(pyrimidin-4-yl)piperazin-1-yl)methyl)pyrimido[4,5-c]isoquinolin-6(5H)-one]
51.2	CC(C)CNc1ncc2c3ccc(CN4CCN(C)CC4)cc3c(=O)n([C@H]3CC[C@H](O)CC3)c2n1 [Compound 56, trans-5-(4-Hydroxycyclohexyl)-3-(isobutylamino)-8-((4-methylpiperazin-1-yl)methyl)pyrimido[4,5-c]isoquinolin-6(5H)-one]
53.8	O=c1c2cc(CN3CCC(N4CCCC4)CC3)ccc2c2cnc(NCC3CC3)nc2n1[C@H]1CC[C@H](O)CC1 [Compound 37, trans-3-((Cyclopropylmethyl)amino)-5-(4-hydroxycyclohexyl)-8-((4-(pyrrolidin-1-yl)piperidin-1-yl)methyl)pyrimido[4,5-c]isoquinolin-6(5H)-one]
56.4	CCCCNc1ncc2c3ccc(CN4CCN(C)CC4)cc3c(=O)n(C3CC4(CC(O)C4)C3)c2n1 (stereo not shown) [Compound 14, 3-(Butylamino)-5-(6-hydroxyspiro[3.3]heptan-2-yl)-8-((4-methylpiperazin-1-yl)methyl)pyrimido[4,5-c]isoquinolin-6(5H)-one]
38.8	CN1CCN(c2ccc3c(c2)c(=O)n([C@H]2CC[C@H](O)CC2)c2nc(NCC4CCC4)ncc32)CC1 [Compound 92, trans-3-((Cyclobutylmethyl)amino)-5-(4-hydroxycyclohexyl)-8-(4-methylpiperazin-1-yl)pyrimido[4,5-c]isoquinolin-6(5H)-one]
48.7	O=c1c2cc(CN3CCN4CCC[C@@H]4C3)ccc2c2cnc(NCC3CC3)nc2n1[C@H]1CC[C@H](O)CC1 [Compound 159]
50.7	O=c1c2cc(CN3CCN(CC(F)(F)F)CC3)ccc2c2cnc(NCC3CC3)nc2n1[C@H]1CC[C@H](O)CC1 [Compound 40, trans-3-((Cyclopropylmethyl)amino)-5-(4-hydroxycyclohexyl)-8-((4-(2,2,2-trifluoroethyl)piperazin-1-yl)methyl)pyrimido[4,5-c]isoquinolin-6(5H)-one]
45.9	O=c1c2cc(CN3CCOCC3)ccc2c2cnc(NCCC3CC3)nc2n1[C@H]1CC[C@H](O)CC1 [Compound 27, trans-3-((2-Cyclopropylethyl)amino)-5-(4-hydroxycyclohexyl)-8-(morpholinomethyl)pyrimido [4,5-c]isoquinolin-6(5H)-one]
89.1	CCCCNc1ncc2c3ccc(CN4CCN(C)CC4)cc3c(=O)n([C@H]3CCC[C@H](O)CCC3)c2n1 [Compound 127, 3-(Butylamino)-5-((1r,5r)-5-hydroxycyclooctyl)-8-((4-methylpiperazin-1-yl)methyl)pyrimido[4,5-c]isoquinolin-6(5H)-one]
